Data as given in US20240368139A1, “NOVEL MODULATORS OF EHMT1 AND EHMT2 AND THERAPEUTIC USE THEREOF” (Tango Therapeutics, Inc., priority 2021, published 2024).

What was measured:
[1] = biological target: T1, human EHMT2 913-1193 (Homo sapiens, UniProt Q96KQ7); experiment: EHMT2 enzyme assay on histone peptide substrate (3H-SAM SPA); conditions: EHMT2 IC50, recombinant human EHMT2 913-1193, histone peptide substrate
T1 sequence (Q96KQ7 913-1193): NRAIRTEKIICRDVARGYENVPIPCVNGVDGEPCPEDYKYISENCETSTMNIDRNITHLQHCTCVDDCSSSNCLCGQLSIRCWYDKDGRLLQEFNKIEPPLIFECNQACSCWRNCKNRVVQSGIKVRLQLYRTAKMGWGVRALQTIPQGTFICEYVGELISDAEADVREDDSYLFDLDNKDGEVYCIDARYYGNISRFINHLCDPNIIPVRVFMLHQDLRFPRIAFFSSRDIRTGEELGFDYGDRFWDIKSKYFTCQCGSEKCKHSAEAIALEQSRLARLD

[2] = test system: H3K9me2 in HCT116 cells; experiment: HCT116 H3K9me2 in-cell western assay; format: cell-based; conditions: Homo sapiens, HCT-116, 72 h, HCT116 cells, 72 hours incubation; read-out: H3K9me2 ICW IC50
Source text: HCT116 cell line was purchased from ATCC (Manassas, VA, USA). […] Penicillin-Streptomycin and heat inactivated fetal bovine serum were purchased from Hyclone (Logan, UT, USA). DPBS, Corning^R were purchased from VWR (Radnor, PA, USA). Triton′ X-100 was purchased from Sigma (St. Louis, MO, USA). Intercept blocking buffer, DRAQ5, Licor Odyssey Infrared Scanner were purchased from Licor Biosciences (Lincoln, NB, USA). Plate washer was purchased from BioTek (Winooski, VT, USA). […] 16% Paraformaldehyde was purchased from Electron Microscopy Sciences (Hatfield, PA, USA). HCT116 cells were maintained in complete growth medium (RPMI supplemented with 10% heat inactivated fetal bovine serum, 1% Penicillin-Streptomycin) and cultured at 37° C. under 5% CO2. N^2-(4-methoxy-3-(3-(pyrrolidin-1-yl)propoxy)phenyl)-N^4,6-dimethyl]pyrimidine-2,4-diamine (synthesis disclosed in International Application WO2017181177A1) was used as a control compound.
HCT116 cells (ATCC) were trypsinized, counted and seeded in assay medium (RPMI supplemented with 10% heat inactivated fetal bovine serum, 1% Penicillin-Streptomycin) at a concentration of 2,000 cells per well to a 384-well cell culture plate with compounds in 50 μl per well. Plates were incubated with at 37° C. under 5% CO2 for 72 hours. After the incubation, 50 μl per well of 8% paraformaldehyde in PBS was added to the plates and incubated at room temperature for 20 minutes. Plates were transferred to a BioTek (EL406) plate washer and washed 5 times with 110 μl per well of wash buffer (1×PBS containing 0.1% Triton X-100). The plates were next blocked with 50 μl of Intercept blocking buffer for 1 hour at room temperature. Blocking buffer was removed and 30 μl per well of monoclonal primary antibody of H3K9me2 (CST) diluted 1:200 in Intercept blocking buffer were added and plates were incubated overnight at 4° C. The plates were then washed 5 times with 110 μl per well of wash buffer (1×PBS containing 0.1% Triton X-100). Next 30 μl per well of secondary was added (1:400 800 CW goat anti-rabbit IgG in blocking buffer) with 1:1000 DRAQ5 in blocking buffer and incubated for 2 hours at room temperature. The plates were washed 5 times with 110 μl per well of wash buffer (1×PBS containing 0.1% Triton X-100) then with 100 μl per well of water once. Plates were allowed to dry at room temperature then imaged on a Licor Odyssey Infrared Scanner which measured integrated intensity at 700 nm and 800 nm wavelength. Both 700 and 800 channels were scanned.
The average of the ratio values (800 nm/700 nm) for each well was calculated and used to determine the percentage for each test well in the plate. Compounds were serially diluted two-fold in 0.1% DMSO for a total of 10 test concentrations beginning at 10 μM. IC50 curves were generated using duplicate wells per concentration of compound. […] IC50 values were calculated using a non-linear regression of Prism.

[3] = biological target: T2, human EHMT1 982-1266 (Homo sapiens, UniProt Q9H9B1); experiment: EHMT1 enzyme assay on histone peptide substrate (3H-SAM SPA); conditions: EHMT1 IC50, recombinant human EHMT1 982-1266, histone peptide substrate
T2 sequence (Q9H9B1 982-1266): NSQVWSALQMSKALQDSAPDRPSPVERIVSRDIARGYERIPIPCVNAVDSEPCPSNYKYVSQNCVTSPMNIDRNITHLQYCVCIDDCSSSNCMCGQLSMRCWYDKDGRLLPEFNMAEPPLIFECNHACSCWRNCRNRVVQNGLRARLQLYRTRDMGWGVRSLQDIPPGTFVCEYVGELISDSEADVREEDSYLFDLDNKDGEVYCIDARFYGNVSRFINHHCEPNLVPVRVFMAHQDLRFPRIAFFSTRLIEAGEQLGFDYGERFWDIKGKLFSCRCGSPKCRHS

| SMILES | IC50 [1] | IC50 [2] | IC50 [3] |
| --- | --- | --- | --- |
| CNc1cc(C)nc(Nc2cc(OCCCN3CCCC3)c3c(c2)N(Cc2ccccc2)CCO3)n1 [Compound 127, N2-[4-benzyl-8-(3-pyrrolidin-1-ylpropoxy)-2,3-dihydro-1,4-benzoxazin-6-yl]-N4,6-dimethyl-pyrimidine-2,4-diamine] | 0.5 to 2 µM | 0.5 to 2 µM | 0.1 to 0.5 µM |
| CNc1cc(C)nc(Nc2cc3c(c(N4C[C@H]5CNC[C@H]5C4)c2)OCC3)n1 [Compound 128, N4,6-dimethyl-N2-[7-[rac-(3aS,6aR)-2,3,3a,4,6,6a-hexahydro-1H-pyrrolo[3,4-c]pyrrol-5-yl]-2,3-dihydrobenzofuran-5-yl]pyrimidine-2,4-diamine] | > 2 µM | 0.5 to 2 µM | 0.5 to 2 µM |
| CNc1cc(C)nc(Nc2cc3c(c(OCCCN4CCCC4)c2)OCCN3)n1 [Compound 136] | > 2 µM | 0.5 to 2 µM | 0.1 to 0.5 µM |
| CNc1cc(C)nc(Nc2cc3c(c(C4=CCN(CCOC)CCC4)c2)OCO3)n1 [Compound 145, N2-[7-[1-(2-methoxyethyl)-2,3,4,7-tetrahydroazepin-5-yl]-1,3-benzodioxol-5-yl]-N4,6-dimethyl-pyrimidine-2,4-diamine] | > 2 µM | 0.1 to 0.5 µM | 0.5 to 2 µM |
| CNc1cc(C)nc(Nc2cc3c(c(C4=CCN(C)CCC4)c2)OCCO3)c1 [Compound 146, N4,6-dimethyl-N2-[5-(1-methyl-2,3,4,7-tetrahydroazepin-5-yl)-2,3-dihydro-1,4-benzodioxin-7-yl]pyridine-2,4-diamine] | 0.5 to 2 µM | 0.1 to 0.5 µM | 0.1 to 0.5 µM |
| CNc1cc(C)nc(Nc2cc(OCCCN3CCCC3)c3c(c2)OCO3)c1 [Compound 147, N4,6-dimethyl-N2-[7-(3-pyrrolidin-1-ylpropoxy)-1,3-benzodioxol-5-yl]pyridine-2,4-diamine] | > 2 µM | 0.5 to 2 µM | 0.5 to 2 µM |
| CNc1cc(C)nc(Nc2cc3c(c(C4=CCC(N)CC4)c2)OCC3)n1 (stereo not drawn) [Compound 148, N2-[7-(4-aminocyclohexen-1-yl)-2,3-dihydrobenzofuran-5-yl]-N4,6-dimethyl-pyrimidine-2,4-diamine] | > 2 µM | 0.5 to 2 µM | 0.5 to 2 µM |
| CNc1cc(C)nc(Nc2cc3c(c(C4CCNCC4)c2)OCC3)n1 [Compound 149, N4,6-dimethyl-N2-[7-(4-piperidyl)-2,3-dihydrobenzofuran-5-yl]pyrimidine-2,4-diamine] | > 2 µM | > 2 µM | > 2 µM |
| CNc1cc(C)nc(Nc2cc3c(c(N4CCNCC4)c2)OCC3)n1 [Compound 152] | > 2 µM | > 2 µM | > 2 µM |
| CNc1cc(C)nc(Nc2cc3c(c([C@H]4CC[C@H](N)CC4)c2)OCC3)n1 [Compound 153, N2-[7-(4-aminocyclohexyl)-2,3-dihydrobenzofuran-5-yl]-N4,6-dimethyl-pyrimidine-2,4-diamine] | > 2 µM | > 2 µM | > 2 µM |
| CNc1cc(C)nc(Nc2cc(OCCCN3CCCC3)c3c(c2)OC(F)(F)O3)n1 [Compound 154, N2-[2,2-difluoro-7-(3-pyrrolidin-1-ylpropoxy)-1,3-benzodioxol-5-yl]-N4,6-dimethyl-pyrimidine-2,4-diamine] | 0.5 to 2 µM | 0.1 to 0.5 µM | < 0.1 µM |
| CNc1cc(C)nc(Nc2cc3c(c(C4=CCNCC4)c2)OCC3)n1 [Compound 155, N4,6-dimethyl-N2-[7-(1,2,3,6-tetrahydropyridin-4-yl)-2,3-dihydrobenzofuran-5-yl]pyrimidine-2,4-diamine] | 0.5 to 2 µM | 0.1 to 0.5 µM | 0.1 to 0.5 µM |
| CNc1cc(C)nc(Nc2cc3c(c(C4=CCN(CCOC)CCC4)c2)OC(F)(F)O3)n1 [Compound 158, N2-[2,2-difluoro-7-[1-(2-methoxyethyl)-2,3,4,7-tetrahydroazepin-5-yl]-1,3-benzodioxol-5-yl]-N4,6-dimethyl-pyrimidine-2,4-diamine] | > 2 µM | > 2 µM | > 2 µM |
| CNc1cc(C)nc(Nc2c(F)c3c(c(C4=CCN(C)CCC4)c2F)OCC3)n1 [Compound 186] | 0.5 to 2 µM | 0.1 to 0.5 µM | 0.1 to 0.5 µM |
| CNc1cc(C)nc(Nc2cc3c(c(C4=CCNCCC4)c2OC)OCC3)n1 [Compound 192] | 0.5 to 2 µM | 0.1 to 0.5 µM | 0.1 to 0.5 µM |
| CNc1nc(Nc2cc3c(c(C4=CCNCCC4)c2F)OCC3)nc(C)c1OC [Compound 194] | 0.1 to 0.5 µM | < 0.1 µM | < 0.1 µM |
| CNc1cc(C)nc(Nc2cc3c(c(C4=CCN(C(C)C)CCC4)c2F)OCC3)n1 [Compound 195] | 0.1 to 0.5 µM | < 0.1 µM | < 0.1 µM |

Second part, the compound after the results:

| IC50 [1] | IC50 [2] | IC50 [3] | SMILES |
| --- | --- | --- | --- |
| 0.1 to 0.5 µM | < 0.1 µM | < 0.1 µM | CNc1cc(C)nc(Nc2cc3c(c(C4=CCN(C)CCC4)c2)OCO3)n1 [Compound 141, N4,6-dimethyl-N2-[7-(1-methyl-2,3,4,7-tetrahydroazepin-5-yl)-1,3-benzodioxol-5-yl]pyrimidine-2,4-diamine] |
| 0.1 to 0.5 µM | 0.1 to 0.5 µM | < 0.1 µM | CNc1cc(C)nc(Nc2cc3c(c(C4=CCN(C)CCC4)c2)OC(F)(F)O3)n1 [Compound 156, N2-[2,2-difluoro-7-(1-methyl-2,3,4,7-tetrahydroazepin-5-yl)-1,3-benzodioxol-5-yl]-N4,6-dimethyl-pyrimidine-2,4-diamine] |
| < 0.1 µM | < 0.1 µM | < 0.1 µM | CNc1cc(C)nc(Nc2cc3c(c(C4=CCN(C)CCC4)c2Cl)OCCO3)n1 [Compound 165, N2-[6-chloro-5-(1-methyl-2,3,4,7-tetrahydroazepin-5-yl)-2,3-dihydro-1,4-benzodioxin-7-yl]-N4,6-dimethyl-pyrimidine-2,4-diamine] |
| 0.1 to 0.5 µM | < 0.1 µM | < 0.1 µM | CNc1cc(C)nc(Nc2cc3c(c(C4=CCN(C)CCC4)c2F)OCC32CC2)n1 [Compound 171] |
| 0.1 to 0.5 µM | < 0.1 µM | < 0.1 µM | CNc1cc(C)nc(Nc2cc3c(c(C4=CCN(C)CCC4)c2F)OCCC3(F)F)n1 [Compound 173] |
| < 0.1 µM | < 0.1 µM | < 0.1 µM | CNc1cc(C)nc(Nc2cc3c(c(C4=CCNCCC4)c2F)OCCC3(F)F)n1 [Compound 174] |
| 0.1 to 0.5 µM | < 0.1 µM | < 0.1 µM | CNc1cc(C)nc(Nc2cc3c(c(C4=CCNCCC4)c2F)OCC3(C)C)n1 [Compound 178] |
| 0.1 to 0.5 µM | 0.1 to 0.5 µM | < 0.1 µM | CNc1cc(C)nc(Nc2cc3c(c(C4=CCN(C)CCC4)c2F)OCC3C)n1 (stereo not drawn) [Compound 181] |
| 0.1 to 0.5 µM | < 0.1 µM | < 0.1 µM | CNc1cc(C)nc(Nc2cc3c(c(C4=C[C@@H](C)NCCC4)c2F)OCC3)n1 [Compound 182] |
| 0.1 to 0.5 µM | < 0.1 µM | < 0.1 µM | CNc1cc(C)nc(Nc2cc3c(c(C4=C[C@H](C)NCCC4)c2F)OCC3)n1 [Compound 185] |
